Test results published in US20110118337A1, “Method of Using Compositions Comprising MIR-192 and/or MIR-215 for the Treatment of Cancer” (Merck Sharp & Dohme Corp., priority 2008, published 2011).
Where “and” joins values, the source holds several entries; their conditions need not be identical. Equal entries are not always repeated.

Tests used:
Assay type in all cases: cell-based, human
HCT116DICER^ex5 cells [1] = assay: Cell cycle distribution by propidium iodide FACS after miR-192 duplex transfection (untreated, nocodazole or aphidicolin); settings: for % Cells with 2N (G1/S) / % Cells with 4N (G2/M): 10 nM duplex, 66 hours after transfection
Description: (§1) At 48 hours post transfection, cells were left untreated, treated with nocodazole (100 ng/mL, Sigma-Aldrich), or treated with aphidicolin (2 μg/mL, Sigma-Aldrich) for an additional 18 hours before harvesting. The cells were then trypsinized, collected, fixed and stained with a propidium iodide solution. BrdU-labeling was performed according to the manufacturer's instructions (BD-Pharmigen). For phospho-histone H3 analysis, cells were fixed and permeabilized with IPF buffer (100 mM PIPES pH 6.8, 10 mM EDTA, 1 mM MgCl2, 0.2% Triton X-100, 4% formaldehyde) and stained with propidium iodide and anti-phospho-histone H3 antibody conjugated to Alexa-488 (Cell Signaling Technology). The cells were analyzed using a FACSCalibur flow cytometer (Beacton Dickinson) and FlowJo software (Tree Star, Inc.).

HCT116DICER^ex5 cells [2] = assay: Phospho-histone H3 immunostaining, flow cytometry (M-phase), nocodazole-treated; settings: phospho-histone-H3 positive, 10 nM duplex
Description: as §1
Nocodazole-treated mock transfected and miR-192 transfected cells were also permeabilized, immunostained for phospho-histone-H3 (a mitotic marker) and sorted for DNA content and the respective accumulation of positively stained cells in the mitotic compartment was quantified. It was determined that the percentage of cells in M-phase in the mock transfected population was 40.9%, whereas the percentage of cells in M-phase in the miR-192 transfected population was 4.9%.

HCT116DICER^ex5 cells [3] = assay: Cell cycle FACS screen of pools of three siRNAs per gene (G1 after nocodazole, G2/M after aphidicolin); settings: pools of 3 siRNAs/gene at 100 nM final, FACS 66 hours post-transfection, average of two experiments
Source text: To identify targets whose modulation influences the cell cycle arrest phenotype observed with miR-192 expression, the 62 candidate genes identified as described in Example 2 and shown in TABLE 3 were silenced individually by transfecting a pool of 3 gene-specific siRNA duplexes per gene (each directed to a different region of the gene) into HCT116DICER^ex5 cells. The siRNA duplex sequences (3 duplexes per gene) used to target each of the 62 genes are shown below in TABLE 5. The siRNA duplex oligonucleotides were obtained from Sigma-Genesys, as described in Linsley, P. S. et al., Mol Cell Biol 27:2240-2252 (2007).
HCT116DICER^ex5 cells were transiently transfected with pools of three different siRNA duplexes per gene at a 100 nM final concentration using Lipofectamine RNAiMax (Invitrogen), according to the manufacturer's instructions. At 48 hours post transfection, cells were left untreated, treated with nocodazole (100 ng/mL, Sigma-Aldrich), or treated with aphidicolin (2 μg/mL, Sigma-Aldrich) for an additional 18 hours before harvesting. The cells transfected with the siRNA pools were then screened by FACS analysis as described in Example 3 for the percentage of cells arrested in G1 or G2/M as compared to the negative siRNA luciferase control.
The siRNA pools tested in this screen were ranked according to the percentage of cells arrested in G1 or G2/M following transfection, as compared with a negative control siRNA targeting luciferase. To avoid being misled by possible RNAi off-target effects, the siRNA pools were deconvoluted to identify genes for which at least 2 different siRNA duplexes from the pool caused the cell cycle arrest phenotype (data not shown).
TABLE 6 summarizes the data obtained 66 hours post-transfection by FACS analysis showing the cell cycle distribution of the HCT116DICER^ex5 cells transfected with siRNA pools of 3 siRNAs/gene. Each pool was analyzed in two separate experiments, and the average percentage of the cells trapped in G1 (following nocodazole treatment), or G2/M (following aphidicolin treatment) are shown in TABLE 6.

HCT116DICER^ex5 cells [4] = assay: Cell cycle FACS analysis of siRNAs against top G1 and G2 arrest genes (nocodazole or aphidicolin); settings: 10 mM miR-192
Description: Of the 62 genes shown above in TABLE 6, the 10 genes whose targeting by siRNA caused the largest percentage of cells to arrest in G1, listed below in TABLE 7, were transfected into HCT116DICER^ex5 cells in another experiment as follows.
HCT116DICER^ex5 cells were transfected with […] miR-192 or 100 nM siRNA against luciferase, or 100 nM siRNA (one siRNA duplex of the pool of three) against the putative miR-192 target of interest, as indicated in TABLES 7 and 8. At 48 hours post transfection, cells were treated with nocodazole or aphicicolin for an additional 18 hours prior to FACS analysis. The results for the nocodazole treated cells (% of cells in G1) are provided in TABLE 7, and graphically illustrated in FIG. 3A. The results for the aphidicolin treated cells (% of cells in G2) are provided in TABLE 8 and graphically illustrated in FIG. 3B.

[5] = tested on: CDC7, LMNB2, MAD2L1 and CUL5; assay: Western blot analysis; settings: HCT116DICER^ex5 cells, 10 nM, data not shown
Description: HCT116DICER^ex5 cells were transfected with 10 nM siRNA against luciferase or 10 nM miR-192 or 10 nM miR-192 mutant, and lysates were prepared at 28 hours or 48 hours post-transfection. For immunoblotting, 30 μg of whole cell lysate extracted in a modified RIPA buffer (150 mM NaCl, 50 mM Tris pH 7.4, 1 mM EDTA, 1% NP-40, 0.1% SDS) was used per sample. CDC7, LMNB2, MAD2L1 and CUL5 were detected by Western blot using anti-CDC7 (sc-56275, Santa Cruz Biotechnology Inc.), anti-LMNB2 (MAB3536, Millipore), anti-MAD2L1 (ab55452, Abcam) and anti-CUL5 (Invitrogen) antibodies, and protein levels were compared to the level of β-actin expression as detected by an anti-β-actin antibody (Abcam).

[6] = compared with mock or mutant miR-192-transfected cells

Substance: miR-192: Synthetic duplex mimetic of miR-192, guide CUGACCUAUGAAUUGACAGCC (SEQ ID NO:1), passenger SEQ ID NO:7 (sense CUGUCAAUUCAUCGGUCUGAU; listed as RNA, chemistry not given here; listed as Homo sapiens)
- % Cells with 2N (G1/S) (HCT116DICER^ex5 cells [1]; aphidicolin 2 μg/mL 18 hours): 46.3%
- % Cells with 4N (G2/M) (HCT116DICER^ex5 cells [1]; aphidicolin 2 μg/mL 18 hours): 47.4%
- G2/M phase population (HCT116DICER^ex5 cells [1]; [6]): increase
- S phase population (HCT116DICER^ex5 cells [1]; [6]): significant decrease
- % Cells with 2N (G1/S) (HCT116DICER^ex5 cells [1]; nocodazole 100 ng/mL 18 hours): 36% and 36.3%
- % Cells with 4N (G2/M) (HCT116DICER^ex5 cells [1]; nocodazole 100 ng/mL 18 hours): 56.5%
- accumulation in the G2/M phase (HCT116DICER^ex5 cells [1]; treated with aphidicolin): a significant fraction
- % Cells with 2N (G1/S) (HCT116DICER^ex5 cells [1]; untreated): 48.6%
- % Cells with 4N (G2/M) (HCT116DICER^ex5 cells [1]; untreated): 44.6%
- percentage of cells in M-phase (HCT116DICER^ex5 cells [2]): 4.9%
- % G2 (Avg), Aphidicholin+ (HCT116DICER^ex5 cells [3]; aphidicolin 2 μg/mL 18 h): 54.9%
- % G1 (Avg), Nocodazole+ (HCT116DICER^ex5 cells [3]; nocodazole 100 ng/mL 18 h): 43.6%
- % Cells in G2 (HCT116DICER^ex5 cells [4]; aphidicolin 18 hours from 48 hours post transfection): 42.3%
- % Cells in G1 (HCT116DICER^ex5 cells [4]; nocodazole 18 hours from 48 hours post transfection): 37.9%
- protein level [5]: downregulated
